Earlier results in patent US20240350385A1 (priority 2023, published 2024).

Tested on: patients
Settings: in vivo

## C=C(C#N)C(=O)OCCCC [n-Butyl cyanoacrylate]
  incidence of allergic contact dermatitis: 2.2%

## 2-Octyl cyanoacrylate
  incidence of allergic contact dermatitis: 2.7%
